What all share (assay): Methyl transferase scintillation proximity assay
Common to all, as to format: biochemical
Common to all, as to conditions: average of two measurements; for inhibition at 10 µM: read-out: MTases Inhibition (%)
In general terms: SPA uses beads or plates that emit light when radiolabelled molecules are held near them.

One assay deals with T1, BCDIN3D (Homo sapiens, UniProt Q7Z5W3).
T1 construct: purchased DiscoverX BROMOscan (bromodomains); SGC in-house methyltransferase panel
T1 sequence (Q7Z5W3 1-292): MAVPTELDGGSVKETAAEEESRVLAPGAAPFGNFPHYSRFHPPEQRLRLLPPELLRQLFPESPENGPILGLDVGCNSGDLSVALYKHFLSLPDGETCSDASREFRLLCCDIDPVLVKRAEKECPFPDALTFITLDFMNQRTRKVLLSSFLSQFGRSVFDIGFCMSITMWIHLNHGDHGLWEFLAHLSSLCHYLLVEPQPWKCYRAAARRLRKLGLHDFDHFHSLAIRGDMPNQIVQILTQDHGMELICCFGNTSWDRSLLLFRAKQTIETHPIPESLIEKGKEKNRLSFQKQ
The method, then:
(§1) Assays measuring lysine and arginine methyl transferase activity have been described in Scheer et al.. A radioactivity-based scintillation proximity assay was used to monitor incorporation of a tritium-labeled methyl group into the biotinylated substrate of the methyl transferase. A 10-μl reaction containing ^3H-SAM and substrate at concentrations close to the apparent Km values for each enzyme was prepared. The reactions were quenched with 10 μl of 7.5 M guanidine hydrochloride; 180 μl of 20 mM Tris buffer (pH 8.0) were added; and the mixture was transferred to a 96-well FlashPlate and incubated for 1 h. The counts per minute (CPM) was measured on a TopCount plate reader. The CPM in the absence of compound or enzyme was defined as 100% activity and background (0%), respectively, for each dataset.

The target of another assay is T2, DNMT3A/3L (Homo sapiens, UniProt Q9Y6K1).
T2 construct: purchased DiscoverX BROMOscan (bromodomains); SGC in-house methyltransferase panel
T2 sequence (Q9Y6K1 whole entry, looked up): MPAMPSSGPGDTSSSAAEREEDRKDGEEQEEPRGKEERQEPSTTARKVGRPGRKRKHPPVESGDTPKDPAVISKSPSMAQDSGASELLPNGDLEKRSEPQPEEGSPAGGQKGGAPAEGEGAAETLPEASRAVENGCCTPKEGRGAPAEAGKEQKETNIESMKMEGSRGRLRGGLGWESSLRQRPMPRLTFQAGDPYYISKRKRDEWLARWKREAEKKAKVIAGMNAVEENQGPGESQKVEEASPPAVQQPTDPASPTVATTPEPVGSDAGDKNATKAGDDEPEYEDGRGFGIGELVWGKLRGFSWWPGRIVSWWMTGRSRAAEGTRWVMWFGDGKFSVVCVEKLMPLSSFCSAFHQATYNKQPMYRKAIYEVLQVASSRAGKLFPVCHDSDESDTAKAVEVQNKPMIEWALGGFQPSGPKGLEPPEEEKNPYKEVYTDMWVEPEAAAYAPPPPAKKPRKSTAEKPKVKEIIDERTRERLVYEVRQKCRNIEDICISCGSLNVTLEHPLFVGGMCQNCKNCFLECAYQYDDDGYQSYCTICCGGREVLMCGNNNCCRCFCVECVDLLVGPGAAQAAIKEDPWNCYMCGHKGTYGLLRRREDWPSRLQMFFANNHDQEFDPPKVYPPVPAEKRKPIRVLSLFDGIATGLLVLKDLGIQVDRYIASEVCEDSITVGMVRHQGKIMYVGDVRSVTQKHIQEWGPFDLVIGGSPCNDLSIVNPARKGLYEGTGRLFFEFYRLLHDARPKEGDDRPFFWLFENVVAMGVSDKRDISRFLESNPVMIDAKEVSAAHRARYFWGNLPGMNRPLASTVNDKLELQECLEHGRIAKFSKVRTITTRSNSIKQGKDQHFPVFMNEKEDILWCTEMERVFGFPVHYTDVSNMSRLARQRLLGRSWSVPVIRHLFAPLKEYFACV
T2 sequence (Q9UJW3 whole entry partner): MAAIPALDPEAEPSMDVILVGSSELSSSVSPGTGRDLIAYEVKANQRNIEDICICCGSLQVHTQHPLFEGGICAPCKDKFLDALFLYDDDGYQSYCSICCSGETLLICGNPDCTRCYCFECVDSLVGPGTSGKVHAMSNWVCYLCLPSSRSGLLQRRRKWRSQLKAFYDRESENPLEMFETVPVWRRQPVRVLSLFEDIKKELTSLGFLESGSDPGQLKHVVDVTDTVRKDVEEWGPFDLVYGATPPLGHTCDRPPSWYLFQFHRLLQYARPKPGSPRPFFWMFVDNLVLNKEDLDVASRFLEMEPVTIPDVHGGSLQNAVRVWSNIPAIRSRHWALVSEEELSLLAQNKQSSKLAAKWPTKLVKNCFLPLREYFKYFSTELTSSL
As for the experimental part: as §1

The target in another assay is T3, PRMT1 (Homo sapiens, UniProt Q99873).
T3 construct: purchased DiscoverX BROMOscan (bromodomains); SGC in-house methyltransferase panel
T3 sequence (Q99873 whole entry): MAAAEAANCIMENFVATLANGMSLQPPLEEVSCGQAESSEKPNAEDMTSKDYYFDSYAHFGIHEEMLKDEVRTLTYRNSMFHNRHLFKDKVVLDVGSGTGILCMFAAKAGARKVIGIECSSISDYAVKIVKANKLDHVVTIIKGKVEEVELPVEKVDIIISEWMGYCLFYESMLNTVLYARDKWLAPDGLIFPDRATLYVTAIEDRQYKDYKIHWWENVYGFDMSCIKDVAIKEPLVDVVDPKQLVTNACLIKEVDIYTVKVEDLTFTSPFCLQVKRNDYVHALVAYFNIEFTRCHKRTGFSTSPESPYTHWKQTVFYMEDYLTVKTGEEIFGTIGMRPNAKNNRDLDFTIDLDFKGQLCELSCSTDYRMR
The method, then: as §1

A further assay has as its target T4, PRMT5 (Homo sapiens, UniProt O14744).
T4 construct: purchased DiscoverX BROMOscan (bromodomains); SGC in-house methyltransferase panel
As for the experimental part: as §1

For another assay, the target named is T5, PRMT8 (Homo sapiens, UniProt Q9NR22).
T5 construct: purchased DiscoverX BROMOscan (bromodomains); SGC in-house methyltransferase panel
T5 sequence (Q9NR22 whole entry): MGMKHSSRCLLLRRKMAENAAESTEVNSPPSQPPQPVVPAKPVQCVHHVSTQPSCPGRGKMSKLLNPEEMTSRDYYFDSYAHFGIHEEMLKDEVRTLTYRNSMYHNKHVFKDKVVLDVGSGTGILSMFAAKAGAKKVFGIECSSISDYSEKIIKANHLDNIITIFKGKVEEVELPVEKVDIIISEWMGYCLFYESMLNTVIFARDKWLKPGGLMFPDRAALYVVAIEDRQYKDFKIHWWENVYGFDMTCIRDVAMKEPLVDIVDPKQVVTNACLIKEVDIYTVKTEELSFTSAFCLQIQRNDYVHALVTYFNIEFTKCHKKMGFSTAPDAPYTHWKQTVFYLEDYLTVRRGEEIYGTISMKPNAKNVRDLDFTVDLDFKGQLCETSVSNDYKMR
As for the experimental part:
as §1

A further assay deals with T6, SMYD2 (Homo sapiens, UniProt Q9NRG4).
T6 construct: purchased DiscoverX BROMOscan (bromodomains); SGC in-house methyltransferase panel
T6 sequence (Q9NRG4 whole entry): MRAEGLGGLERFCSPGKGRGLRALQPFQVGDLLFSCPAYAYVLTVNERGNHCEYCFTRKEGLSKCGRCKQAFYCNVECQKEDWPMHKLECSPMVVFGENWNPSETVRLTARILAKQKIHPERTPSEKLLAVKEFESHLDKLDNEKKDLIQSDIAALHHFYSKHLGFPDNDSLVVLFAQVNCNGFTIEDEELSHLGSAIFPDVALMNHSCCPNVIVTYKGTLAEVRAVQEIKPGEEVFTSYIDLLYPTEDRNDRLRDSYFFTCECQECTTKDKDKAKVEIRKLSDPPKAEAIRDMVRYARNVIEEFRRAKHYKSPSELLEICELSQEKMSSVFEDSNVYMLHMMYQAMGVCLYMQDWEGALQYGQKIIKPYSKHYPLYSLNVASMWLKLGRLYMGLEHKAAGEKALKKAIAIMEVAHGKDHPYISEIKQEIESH
The method, then:
as §1

SMILES strings stand for the structures.

Usually inhibition stands for the change of the read-out against control, counted positive when it falls.

T4 sequence (O14744 whole entry): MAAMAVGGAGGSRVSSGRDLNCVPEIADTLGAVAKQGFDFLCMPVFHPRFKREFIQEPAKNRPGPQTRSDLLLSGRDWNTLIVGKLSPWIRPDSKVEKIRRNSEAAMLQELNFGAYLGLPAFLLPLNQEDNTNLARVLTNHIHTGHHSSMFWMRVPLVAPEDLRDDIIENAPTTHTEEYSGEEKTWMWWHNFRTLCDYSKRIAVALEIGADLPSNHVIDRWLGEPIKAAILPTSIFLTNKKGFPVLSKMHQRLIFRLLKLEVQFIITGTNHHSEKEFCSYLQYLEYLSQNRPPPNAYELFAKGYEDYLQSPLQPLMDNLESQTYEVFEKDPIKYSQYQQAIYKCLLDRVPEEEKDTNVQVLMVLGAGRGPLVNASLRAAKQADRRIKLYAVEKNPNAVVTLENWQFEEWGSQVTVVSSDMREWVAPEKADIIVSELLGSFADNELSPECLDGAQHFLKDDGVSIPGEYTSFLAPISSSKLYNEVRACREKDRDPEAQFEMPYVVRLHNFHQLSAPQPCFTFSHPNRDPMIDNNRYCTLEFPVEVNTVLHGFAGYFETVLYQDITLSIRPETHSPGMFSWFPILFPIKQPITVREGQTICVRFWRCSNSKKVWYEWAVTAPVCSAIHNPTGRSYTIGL
T4 sequence (Q9BQA1 whole entry partner): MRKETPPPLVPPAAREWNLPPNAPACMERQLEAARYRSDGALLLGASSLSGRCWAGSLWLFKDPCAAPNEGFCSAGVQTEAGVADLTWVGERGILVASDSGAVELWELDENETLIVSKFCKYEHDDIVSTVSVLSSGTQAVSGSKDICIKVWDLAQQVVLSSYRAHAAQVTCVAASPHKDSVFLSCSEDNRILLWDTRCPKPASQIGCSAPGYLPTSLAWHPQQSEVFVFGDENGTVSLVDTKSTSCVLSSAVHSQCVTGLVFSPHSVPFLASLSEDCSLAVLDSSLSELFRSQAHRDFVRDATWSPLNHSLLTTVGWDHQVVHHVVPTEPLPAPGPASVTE

Turning to `COc1cc(Cl)c(C(=O)N[C@@H](CN[C@H]2CC[C@@H](N)CC2)Cc2ccc(C#N)cc2)cc1-c1ccc(CN[C@H](C)c2ccc(C)cc2)o1` [BAY-850], the inhibition at 10 µM came to 28% on BCDIN3D; 21% on DNMT3A/3L; 15% at PRMT1; 4% at PRMT5; 4% on PRMT8; 19% on SMYD2.
For `Cc1c(NC(=O)c2cc(C(N)=O)nc3cc(F)ccc23)c(C(F)(F)F)nn1Cc1ccc(C#N)cc1` [BAY-876], the inhibition at 10 µM on BCDIN3D is 17%; on DNMT3A/3L, 6%; at PRMT1, 2%; at PRMT5, -1%; at PRMT8, 9%; at SMYD2 it was -10%.
Take `CN1C[C@H](Nc2cnn(C)c(=O)c2Br)C[C@H](c2ccccc2)C1` [GSK4027]: the inhibition at 10 µM at BCDIN3D amounted to 14%; at DNMT3A/3L, 3%; at PRMT1, 4%; at PRMT5, 8%; on PRMT8, 15%; at SMYD2, 2%.
With `COc1ccccc1C(=O)Nc1cc2c(cc1N1CCNC[C@H]1C)n(C)c(=O)n2C` [GSK6853], the “MTases Inhibition (%)” value on BCDIN3D (10µM) is recorded as 5%; at DNMT3A/3L (10µM), 13%; at PRMT1 (10µM), -7%; at PRMT5 (10µM), 3%; on PRMT8 (10µM), 3%; on SMYD2 (10µM), -3%.
For `CO[C@H]1CNC[C@@H](OCC2CCC(F)(F)CC2)[C@@H]1Nc1ncc(-c2cncc(C)c2)c2cc(C)c(=O)[nH]c12` [GSK8814], the inhibition at 10 µM is 7% at BCDIN3D; 8% at DNMT3A/3L; 3% on PRMT1; -2% on PRMT5; 5% on PRMT8; -2% at SMYD2.
`Cc1nnc2c3ccccc3c(N[C@@H](C)[C@H](c3ccccc3)N(C)C)nn12` [L-Moses]: the inhibition at 10 µM was 9% on BCDIN3D; 2% on DNMT3A/3L; -2% at PRMT1; -3% on PRMT5; 5% at PRMT8; -10% on SMYD2.
With `CN(C)CCCOc1ccc(-c2cc(NCCCn3cccn3)nc(S(C)(=O)=O)n2)cc1` [TP-238], the inhibition at 10 µM at BCDIN3D was 4%; on DNMT3A/3L it was 8%; at PRMT1, 0%; at PRMT5, -12%; at PRMT8, 3%; at SMYD2, -2%.

For the origin of these results see PMC6478789, “A chemical toolbox for the study of bromodomains and epigenetic signaling” (Nature Communications, 2019).
